Experimental data published in PubChem BioAssay (NCI).
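All cell lines were grown in 96-well plates and treated with compound for 48 hours. Abbreviation: GI50, concentration required for 50% inhibition of growth. At the TGI there is no net growth.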

What was measured:
Assay in all cases: NCI-60 cell line screen, 48 h
A498 renal = test system: A498 renal
MDA-MB-435 = test system: MDA-MB-435
HL-60(TB) leukemia = test system: HL-60(TB) leukemia
CCRF-CEM leukemia = test system: CCRF-CEM leukemia
RXF 393 renal = test system: RXF 393 renal
UACC-257 melanoma = test system: UACC-257 melanoma
DU-145 prostate = test system: DU-145 prostate
TK-10 renal = test system: TK-10 renal
OVCAR-3 ovarian = test system: OVCAR-3 ovarian
ACHN renal = test system: ACHN renal
OVCAR-5 ovarian = test system: OVCAR-5 ovarian
SK-OV-3 ovarian = test system: SK-OV-3 ovarian
HOP-62 NSCLC = test system: HOP-62 NSCLC
CAKI-1 renal = test system: CAKI-1 renal
NCI-H226 lung = test system: NCI-H226 lung
RPMI-8226 leukemia = test system: RPMI-8226 leukemia
SF-268 CNS = test system: SF-268 CNS
MOLT-4 leukemia = test system: MOLT-4 leukemia
OVCAR-4 ovarian = test system: OVCAR-4 ovarian
IGROV1 ovarian = test system: IGROV1 ovarian
NCI-H522 lung = test system: NCI-H522 lung
UACC-62 melanoma = test system: UACC-62 melanoma
COLO 205 colon = test system: COLO 205 colon
SF-295 CNS = test system: SF-295 CNS
OVCAR-8 ovarian = test system: OVCAR-8 ovarian
SF-539 CNS = test system: SF-539 CNS
U251 CNS = test system: U251 CNS
SK-MEL-2 melanoma = test system: SK-MEL-2 melanoma
T-47D breast = test system: T-47D breast
SK-MEL-28 melanoma = test system: SK-MEL-28 melanoma
UO-31 renal = test system: UO-31 renal
HOP-92 NSCLC = test system: HOP-92 NSCLC
HS 578T breast = test system: HS 578T breast
SK-MEL-5 melanoma = test system: SK-MEL-5 melanoma
LOX IMVI melanoma = test system: LOX IMVI melanoma
HT29 colon = test system: HT29 colon
SN12C renal = test system: SN12C renal
MALME-3M melanoma = test system: MALME-3M melanoma
BT-549 breast = test system: BT-549 breast
EKVX NSCLC = test system: EKVX NSCLC
A549 NSCLC = test system: A549 NSCLC
NCI-H23 lung = test system: NCI-H23 lung
K-562 leukemia = test system: K-562 leukemia
SNB-75 CNS = test system: SNB-75 CNS
KM12 colon = test system: KM12 colon
786-0 renal = test system: 786-0 renal
SW-620 colon = test system: SW-620 colon
HCT-15 colon = test system: HCT-15 colon
PC-3 prostate = test system: PC-3 prostate
HCC-2998 colon = test system: HCC-2998 colon
M14 melanoma = test system: M14 melanoma
SNB-19 CNS = test system: SNB-19 CNS
MDA-MB-231 breast = test system: MDA-MB-231 breast
SR leukemia = test system: SR leukemia
NCI-H460 lung = test system: NCI-H460 lung
NCI/ADR-RES ovarian = test system: NCI/ADR-RES ovarian
MCF7 breast = test system: MCF7 breast

Cl.Fc1c[c-]c(-c2ccccn2)c(F)c1.[Pt].c1ccc([PH+](c2ccccc2)c2ccccc2[PH+](c2ccccc2)c2ccccc2)cc1 showed a GI50 (A498 renal) of 0.0493 µM, a TGI (A498 renal) of 0.215 µM and a GI50 (MDA-MB-435) of 0.0825 µM. The TGI (MDA-MB-435) was 0.268 µM, the GI50 (HL-60(TB) leukemia) was 0.0395 µM and the TGI (HL-60(TB) leukemia) was 0.321 µM. It also gave a GI50 (CCRF-CEM leukemia) of 0.078 µM, a TGI (CCRF-CEM leukemia) of 1.09 µM and a GI50 (RXF 393 renal) of 0.137 µM. It also gave a TGI (RXF 393 renal) of 0.296 µM, a GI50 (UACC-257 melanoma) of 0.107 µM and a TGI (UACC-257 melanoma) of 0.698 µM. The GI50 (DU-145 prostate) was 0.0677 µM, the TGI (DU-145 prostate) was 0.334 µM and the GI50 (TK-10 renal) was 0.141 µM. For the same molecule, the TGI (TK-10 renal) was 0.689 µM, the GI50 (OVCAR-3 ovarian) was 0.0629 µM and the TGI (OVCAR-3 ovarian) was 0.211 µM. For the same molecule, the GI50 (ACHN renal) was 0.157 µM, the TGI (ACHN renal) was 0.46 µM and the GI50 (OVCAR-5 ovarian) was 0.14 µM. For the same molecule, the TGI (OVCAR-5 ovarian) was 0.415 µM, the GI50 (SK-OV-3 ovarian) was 0.0883 µM and the TGI (SK-OV-3 ovarian) was 0.64 µM. It also gave a GI50 (HOP-62 NSCLC) of 0.0655 µM and a TGI (HOP-62 NSCLC) of 0.32 µM.

CC1(C)CC[C@]2(CO)CC[C@]3(C)C(=CC[C@@H]4[C@@]5(C)CC[C@H](NCO)C(C)(C)[C@@H]5CC[C@]43C)[C@@H]2C1 showed a GI50 (A498 renal) of 1.38 µM, a TGI (A498 renal) of 2.83 µM and a GI50 (CAKI-1 renal) of 1.85 µM. For the same molecule, the TGI (CAKI-1 renal) was 3.52 µM, the GI50 (CCRF-CEM leukemia) was 2.04 µM and the TGI (CCRF-CEM leukemia) was 5.94 µM. For the same molecule, the GI50 (NCI-H226 lung) was 2.26 µM, the TGI (NCI-H226 lung) was 5.73 µM and the GI50 (RPMI-8226 leukemia) was 1.75 µM. It also gave a TGI (RPMI-8226 leukemia) of 4.57 µM, a GI50 (SF-268 CNS) of 2.39 µM and a TGI (SF-268 CNS) of 6.22 µM. For the same molecule, the GI50 (MOLT-4 leukemia) was 1.91 µM, the TGI (MOLT-4 leukemia) was 5.1 µM and the GI50 (SK-OV-3 ovarian) was 3.29 µM. For the same molecule, the TGI (SK-OV-3 ovarian) was 9.06 µM.

Cc1cc(S(=O)(=O)Nc2n[nH]c(-c3ccc(Cl)cc3)c2C#N)c(S)cc1Cl showed a GI50 (OVCAR-4 ovarian) greater than 100 µM, a TGI (OVCAR-4 ovarian) greater than 100 µM and a GI50 (IGROV1 ovarian) greater than 100 µM. The TGI (IGROV1 ovarian) was greater than 100 µM, the GI50 (MDA-MB-435) was greater than 100 µM and the TGI (MDA-MB-435) was greater than 100 µM. For the same molecule, the GI50 (NCI-H522 lung) was greater than 100 µM, the TGI (NCI-H522 lung) was greater than 100 µM and the GI50 (HL-60(TB) leukemia) was greater than 100 µM. It also gave a TGI (HL-60(TB) leukemia) greater than 100 µM, a GI50 (CAKI-1 renal) of 30.3 µM and a TGI (CAKI-1 renal) greater than 100 µM. For the same molecule, the GI50 (UACC-62 melanoma) was greater than 100 µM, the TGI (UACC-62 melanoma) was greater than 100 µM and the GI50 (COLO 205 colon) was greater than 100 µM. For the same molecule, the TGI (COLO 205 colon) was greater than 100 µM, the GI50 (SF-295 CNS) was greater than 100 µM and the TGI (SF-295 CNS) was greater than 100 µM. The GI50 (OVCAR-8 ovarian) was greater than 100 µM, the TGI (OVCAR-8 ovarian) was greater than 100 µM and the GI50 (SF-539 CNS) was greater than 100 µM. It also gave a TGI (SF-539 CNS) greater than 100 µM, a GI50 (U251 CNS) greater than 100 µM and a TGI (U251 CNS) greater than 100 µM. For the same molecule, the GI50 (SK-MEL-2 melanoma) was greater than 100 µM, the TGI (SK-MEL-2 melanoma) was greater than 100 µM and the GI50 (T-47D breast) was greater than 100 µM. The TGI (T-47D breast) was greater than 100 µM, the GI50 (CCRF-CEM leukemia) was greater than 100 µM and the TGI (CCRF-CEM leukemia) was greater than 100 µM. It also gave a GI50 (SK-MEL-28 melanoma) greater than 100 µM, a TGI (SK-MEL-28 melanoma) greater than 100 µM and a GI50 (UO-31 renal) greater than 100 µM. It also gave a TGI (UO-31 renal) greater than 100 µM, a GI50 (NCI-H226 lung) greater than 100 µM and a TGI (NCI-H226 lung) greater than 100 µM. It also gave a GI50 (HOP-92 NSCLC) greater than 100 µM, a TGI (HOP-92 NSCLC) greater than 100 µM and a GI50 (RPMI-8226 leukemia) greater than 100 µM. It also gave a TGI (RPMI-8226 leukemia) greater than 100 µM, a GI50 (HS 578T breast) of 35.8 µM and a TGI (HS 578T breast) greater than 100 µM. The GI50 (SF-268 CNS) was greater than 100 µM, the TGI (SF-268 CNS) was greater than 100 µM and the GI50 (SK-MEL-5 melanoma) was greater than 100 µM. The TGI (SK-MEL-5 melanoma) was greater than 100 µM, the GI50 (LOX IMVI melanoma) was greater than 100 µM and the TGI (LOX IMVI melanoma) was greater than 100 µM. It also gave a GI50 (HT29 colon) greater than 100 µM, a TGI (HT29 colon) greater than 100 µM and a GI50 (SN12C renal) greater than 100 µM. The TGI (SN12C renal) was greater than 100 µM, the GI50 (MOLT-4 leukemia) was greater than 100 µM and the TGI (MOLT-4 leukemia) was greater than 100 µM. For the same molecule, the GI50 (MALME-3M melanoma) was greater than 100 µM, the TGI (MALME-3M melanoma) was greater than 100 µM and the GI50 (BT-549 breast) was greater than 100 µM. The TGI (BT-549 breast) was greater than 100 µM, the GI50 (RXF 393 renal) was greater than 100 µM and the TGI (RXF 393 renal) was greater than 100 µM. The GI50 (UACC-257 melanoma) was greater than 100 µM, the TGI (UACC-257 melanoma) was greater than 100 µM and the GI50 (EKVX NSCLC) was greater than 100 µM. It also gave a TGI (EKVX NSCLC) greater than 100 µM, a GI50 (A549 NSCLC) greater than 100 µM and a TGI (A549 NSCLC) greater than 100 µM. For the same molecule, the GI50 (NCI-H23 lung) was greater than 100 µM, the TGI (NCI-H23 lung) was greater than 100 µM and the GI50 (K-562 leukemia) was greater than 100 µM. For the same molecule, the TGI (K-562 leukemia) was greater than 100 µM, the GI50 (DU-145 prostate) was greater than 100 µM and the TGI (DU-145 prostate) was greater than 100 µM. It also gave a GI50 (SNB-75 CNS) greater than 100 µM, a TGI (SNB-75 CNS) greater than 100 µM and a GI50 (KM12 colon) greater than 100 µM. It also gave a TGI (KM12 colon) greater than 100 µM, a GI50 (TK-10 renal) greater than 100 µM and a TGI (TK-10 renal) greater than 100 µM. It also gave a GI50 (786-0 renal) greater than 100 µM, a TGI (786-0 renal) greater than 100 µM and a GI50 (SW-620 colon) greater than 100 µM. The TGI (SW-620 colon) was greater than 100 µM, the GI50 (HCT-15 colon) was greater than 100 µM and the TGI (HCT-15 colon) was greater than 100 µM. The GI50 (OVCAR-3 ovarian) was greater than 100 µM, the TGI (OVCAR-3 ovarian) was greater than 100 µM and the GI50 (PC-3 prostate) was greater than 100 µM. It also gave a TGI (PC-3 prostate) greater than 100 µM, a GI50 (HCC-2998 colon) of 95.5 µM and a TGI (HCC-2998 colon) greater than 100 µM. For the same molecule, the GI50 (M14 melanoma) was greater than 100 µM, the TGI (M14 melanoma) was greater than 100 µM and the GI50 (ACHN renal) was greater than 100 µM. The TGI (ACHN renal) was greater than 100 µM, the GI50 (SNB-19 CNS) was greater than 100 µM and the TGI (SNB-19 CNS) was greater than 100 µM. For the same molecule, the GI50 (MDA-MB-231 breast) was greater than 100 µM, the TGI (MDA-MB-231 breast) was greater than 100 µM and the GI50 (SR leukemia) was greater than 100 µM. The TGI (SR leukemia) was greater than 100 µM, the GI50 (OVCAR-5 ovarian) was greater than 100 µM and the TGI (OVCAR-5 ovarian) was greater than 100 µM. It also gave a GI50 (NCI-H460 lung) greater than 100 µM, a TGI (NCI-H460 lung) greater than 100 µM and a GI50 (SK-OV-3 ovarian) greater than 100 µM. It also gave a TGI (SK-OV-3 ovarian) greater than 100 µM, a GI50 (NCI/ADR-RES ovarian) greater than 100 µM and a TGI (NCI/ADR-RES ovarian) greater than 100 µM. The GI50 (MCF7 breast) was greater than 100 µM, the TGI (MCF7 breast) was greater than 100 µM and the GI50 (HOP-62 NSCLC) was greater than 100 µM. The TGI (HOP-62 NSCLC) was greater than 100 µM.
